The results in this text go back to patent US8178349B2, “Homogeneous neural precursor cells” (Burnham Institute For Medical Research, priority 2005, dated 2012).

Molecules are shown by their SMILES.

Common to all, as to assay type: cell-based, human
Assay [1] relates to NMDA-type glutamate receptors of differentiated hES-NPCs. As to the kind of experiment: Whole-cell patch-clamp recording of ligand-gated currents. Conditions: for effect on glutamate-evoked currents: voltage clamp, holding potential −60 mV, after 2 to 2.5 weeks in culture, 100 μM D-APV. In general terms: Patch clamp records ionic current or voltage across a cell membrane.
The subject of the next assay is differentiated hES-NPCs. The experiment in a line: Whole-cell patch-clamp recording of GABA-evoked currents. Conditions: 2.5 weeks in culture.
The next assay relates to hESCs. As to the kind of experiment: Spheroid bodies formation in suspension medium. Conditions: addition to the suspension medium (2 mM). As to the method:
Spheroid bodies formation: the small clusters (10-100 cells) of hESCs were grown in polypropylene dishes (Ted Pella) in Suspension Medium (1:1 ratio of DMEM/F12:neurobasal medium with N2+B27 supplements, 20 ng/ml insulin 20 ng/ml bFGF, 20 ng/ml EGF and 2 mM N-acetyl cysteine (NAC)). The spheres were grown for 4-6 days, with a change in medium every alternate day.

The test system of assay [2] is glutamate receptors of differentiated hES-NPCs cultures. The experiment in a line: Calcium imaging. Conditions: 4-5 week old cultures; NMDA followed by glutamate, 37° C. As to the method:
Calcium Imaging. Measurement of intracellular free Ca2+ ([Ca2+]i) in differentiated HNSC cultures was performed using Fura-2-AM or Fluo-3-AM as described earlier (Tenneti et al., J Neurochem 71: 946-59, 1998) with the minor modification. Briefly, ES derived hNPC cells were washed twice with recording medium containing 150 mM NaCl, 3 mM KCl, 2 mM CaCl2, 5 mM glucose, 10 μM glycine, and 10 mM HEPES (pH 7.4) and incubated generally at 37° C. in recording medium containing 30 nM Pluronic F-127 and 5 μM Fluo-3 AM for 30 minor 10 μMFura-2-AM for 60 min (acetoxymethyl esters; Molecular Probes). Cultures were then washed three times with recording medium, followed by settlement at 37° C. for at least 30 min. Cells were invariably used within 1 hr after these procedures for observation. During the experiments, cells were kept in a perfusion chamber on the microscope stage at room temperature (Fluo-3) or 37° C. (Fura-2 experiments). Imaging was done using a Sutter DG-4 fast wavelength switcher coupled to a Zeiss Axiovert microscope with a 20×, 0.5 NA, objective. […] Changes in fluorescence intensity were calculated by dividing the measured fluorescence intensity (F; ratio of 340/380 nm for Fura-2) by the measured average baseline fluorescence intensity (F/F0) Excitation was achieved using standard FITC or Fura-2 filter sets (Chroma technologies).

Assay [3] concerns Voltage-gated Na+ currents of differentiated hES-NPCs.

Turning to `N[C@H](CCCP(=O)(O)O)C(=O)O` [D-APV, D-(−)-2 amino-5-phosphonovaleric acid], the “effect on glutamate-evoked currents” value in assay [1] is given as “partially blocked”; in assay [1] (listed as APV) it was “partially inhibited”. As to `NCCCC(=O)O` [GABA, γ-aminobutyric acid], in the assay on differentiated hES-NPCs, the “cells with agonist-evoked currents (cells of cells recorded)” value was 4 of 29. In the case of `CC(=O)N[C@@H](CS)C(=O)O` [NAC, N-acetyl cysteine], the “morphology of spheroid bodies” value in the assay with hESCs is on record as “healthier morphology of spheroid bodies”. Consider `CN[C@H](CC(=O)O)C(=O)O` [NMDA, N-methyl-D-aspartate], for which the “[Ca2+] response of fura-2-loaded cells” value in assay [2] is “Robust responses”. Regarding `NC1=N[C@H](O)[C@H]2[C@H]3O[C@]4(O)O[C@@H]([C@@H](O)[C@@]2(N1)[C@@H]4O)[C@]3(O)CO` [TTX, tetrodotoxin], the “effect on fast Na+ currents” value in assay [3] is given as “reversibly blocked”. Turning to `N[C@@H](CCC(=O)O)C(=O)O` [glutamate], the “cells that manifest agonist-evoked currents” value in assay [1] (after 2 weeks in culture) is on record as “approximately 30%”. In addition, the “[Ca2+] response of fura-2-loaded cells” value in assay [2] is given as “Robust responses”.
